# Laboratory results taken from patent publication US10202332B2, “Method for preparing 2-amino-N-(2,2,2-trifluoroethyl) acetamide” (E. I. du Pont de Nemours and Company, priority 2010, dated 2019).
# Assay: Stability comparison for free base and salts: weight gain or loss on exposure to air in the laboratory
# Format: physicochemical
# Conditions: for hygroscopicity (in words): handling, exposure to air
# Method: To further characterize the stability of the free amine and salts of 2-amino-N-(2,2,2-trifluoroethyl)acetamide the following experiments were performed. Samples of the free amine and salts were exposed to air in the laboratory for a period of time. Weight […] or loss compared to the original sample was determined
SMILES,weight gain upon exposure to the ambient atmosphere (in words),hygroscopicity (in words),sensitivity to air (in words),"% Weight gain (loss) (3 days in ambient atmosphere, parentheses = loss) [%]"
"Cl.NCC(=O)NCC(F)(F)F [Hydrochloride, 2-amino-N-(2,2,2-trifluoroethyl)acetamide hydrochloride]",did not,not hygroscopic,,
"NCC(=O)NCC(F)(F)F [Free base, 2-amino-N-(2,2,2-trifluoroethyl)acetamide]",showed weight gain,hygroscopic,sensitive to air,4.65
